Measurements: ChEMBL document CHEMBL1122542, “A 1H NMR study of the interactions and conformations of rationally designed brodimoprim analogues in complexes with Lactobacillus casei dihydrofolate reductase” (J Med Chem, 1984)

What was measured:
Dihydrofolate reductase [1] = target: T1, Dihydrofolate reductase (Lactobacillus casei, UniProt P00381); assay: Inhibition constant of compound against Lactobacillus casei Dihydrofolate reductase; set-up: species or system Lacticaseibacillus casei
[2] = target: Dihydrofolate reductase (Lactobacillus casei) (UniProt P00381); details: Lacticaseibacillus casei
Dihydrofolate reductase (Lactobacillus casei), sequence (P00381 whole entry): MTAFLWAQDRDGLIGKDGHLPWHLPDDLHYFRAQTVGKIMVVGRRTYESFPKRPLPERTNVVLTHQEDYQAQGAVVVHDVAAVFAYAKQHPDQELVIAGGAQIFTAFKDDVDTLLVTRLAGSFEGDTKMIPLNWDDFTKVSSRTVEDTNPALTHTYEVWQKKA
Description: Tested for pK value of histidine residue(His-28) of Dihydrofolate reductase from Lactobacillus casei

Dihydrofolate reductase [3] = target: T1, Dihydrofolate reductase; assay: Inhibition constant of compound against Lactobacillus casei dihydrofolate reductase; set-up: species or system Lacticaseibacillus casei
[4] = target: Dihydrofolate reductase (Lactobacillus casei) (UniProt P00381); assay: Tested for pK value of histidine residue(His-28) of dihydrofolate reductase from Lactobacillus casei; format: functional; details: Lacticaseibacillus casei

T1 sequence (P00381 whole entry): as above

| Compound | Ki (Dihydrofolate reductase [1]) [nM] | pK [2] | Ki (Dihydrofolate reductase [3]) [nM] | pK [4] |
| --- | --- | --- | --- | --- |
| COc1cc(Cc2cnc(N)nc2N)cc(OCCC(=O)NCC(=O)O)c1Br | 4.1 | 6.71 | – | – |
| COc1cc(Cc2cnc(N)nc2N)cc(OCCCC(CCC(=O)O)C(=O)O)c1Br (stereo unspecified) | < 0.01 | 7.8 | – | – |
| COc1cc(Cc2cnc(N)nc2N)cc(OC)c1Br [BRODIMOPRIM] | – | – | 11.3 | 6.8 |
| COc1cc(Cc2cnc(N)nc2N)cc(OCCCNCCC(=O)O)c1Br | – | – | 5.3 | 6.71 |
| COc1cc(Cc2cnc(N)nc2N)cc(OCCC(=O)NC(CCC(=O)O)C(=O)O)c1Br (stereo unspecified) | 1.7 | 7.12 | – | – |

Other lines, results leading:

| Ki (Dihydrofolate reductase [1]) [nM] | pK [2] | Ki (Dihydrofolate reductase [3]) [nM] | pK [4] | Compound |
| --- | --- | --- | --- | --- |
| 0.9 | – | – | – | COc1cc(Cc2cnc(N)nc2N)cc(OCCCC(=O)O)c1Br |
| 0.6 | 6.8 | – | – | COc1cc(Cc2cnc(N)nc2N)cc(OCCCCCCC(=O)O)c1Br |
| 0.2 | 6.83 | – | – | COc1cc(Cc2cnc(N)nc2N)cc(OCCCCC(=O)O)c1Br |
| 0.4 | – | – | – | COc1cc(Cc2cnc(N)nc2N)cc(OCCCCCC(=O)O)c1Br |
